From ChEMBL document CHEMBL1132523, “Preventive effect of sesquiterpenes from bay leaf on blood ethanol elevation in ethanol-loaded rat: structure requirement and suppression of gastric emptying” (1999) come the findings set out here.

Test [1] deals with Rattus norvegicus. Briefly: Effect of compound (50 mg/kg) on Blood Ethanol level in Ethanol loaded rats after 2 hr. The format is functional.
Test [2] relates to Rattus norvegicus. The test is described as follows: Effect of compound (25 mg/kg) on Blood Ethanol level in Ethanol loaded rats after 1 hr. The format is functional.
In test [3] the test system is Rattus norvegicus. Briefly: Effect of compound (25 mg/kg) on Blood Ethanol level in Ethanol loaded rats after 2 hr. In kind it is functional.
The test system of test [4] is Rattus norvegicus. The test is described as follows: Effect of compound (50 mg/kg) on Blood Ethanol level in Ethanol loaded rats after 1 hr. In kind it is functional.
In test [5] the test system is Rattus norvegicus. Briefly: Effect of compound (50 mg/kg) on Blood Ethanol level in Ethanol loaded rats after 30 minutes. In kind it is functional.
The subject of test [6] is Rattus norvegicus. The test is described as follows: Effect of compound (25 mg/kg) on Blood Ethanol level in Ethanol loaded rats after 30 minutes. The format is functional.
Test [7] has as its system Rattus norvegicus. Briefly: Effect of compound (50 mg/kg) on Serum glucose level in glucose loaded rats after 2 hr. In kind it is functional, organism-based.
In test [8] the test system is Rattus norvegicus. Briefly: Effect of compound (50 mg/kg) on Serum glucose level in glucose loaded rats after 30 minutes. In kind it is functional, organism-based.
Test [9] relates to Rattus norvegicus. The test is described as follows: Effect of compound (25 mg/kg) on Serum glucose level in glucose loaded rats after 1 hr. In kind it is functional, organism-based.
Test [10] relates to Rattus norvegicus. Briefly: Effect of compound (25 mg/kg) on Gastric emptying time in Ethanol loaded rats after 30 minutes. The format is functional, Stomach.
The test system of test [11] is Rattus norvegicus. Briefly: Effect of compound (25 mg/kg) on Serum glucose level in glucose loaded rats after 30 minutes. The format is functional, organism-based.
In test [12] the test system is Rattus norvegicus. Briefly: Effect of compound (50 mg/kg) on Gastric emptying in Ethanol loaded rats after 30 minutes. The format is functional, Stomach.
Test [13] deals with Rattus norvegicus. Briefly: Effect of compound (50 mg/kg) on Gastric emptying time in Ethanol loaded rats after 30 minutes. The format is functional, Stomach.
Test [14] concerns Rattus norvegicus. Briefly: Effect of compound (50 mg/kg) on Serum glucose level in glucose loaded rats after 1 hr. In kind it is functional, organism-based.
Test [15] deals with Rattus norvegicus. The test is described as follows: Effect of compound (25 mg/kg) on Gastric emptying in Ethanol loaded rats after 30 minutes. In kind it is functional, Stomach.
Test [16] has as its system Rattus norvegicus. Briefly: Effect of compound (25 mg/kg) on Serum glucose level in glucose loaded rats after 2 hr. In kind it is functional, organism-based.
Test [17] has as its system Rattus norvegicus. Briefly: Effect of compound (12.5 mg/kg) on Gastric emptying in Ethanol loaded rats after 30 minutes. In kind it is functional, Stomach.
Test [18] deals with Rattus norvegicus. The test is described as follows: Effect of compound (12.5 mg/kg) on Blood Ethanol level in Ethanol loaded rats after 30 minutes. In kind it is functional.
The test system of test [19] is Rattus norvegicus. Briefly: Effect of compound (12.5 mg/kg) on Blood Ethanol level in Ethanol loaded rats after 1 hr. In kind it is functional.
Test [20] relates to Rattus norvegicus. Briefly: Effect of compound (12.5 mg/kg) on Blood Ethanol level in Ethanol loaded rats after 2 hr. The format is functional.

Several values for one entry are separate records, joined by “and”; a condition that tells them apart may be missing. Equal values may be shown once.

In the case of `C=C1CCC[C@]2(C)CC[C@@H](C(C)(C)O)C[C@@H]12` [BETA-EUDESMOL], the Blood ethanol level in test [1] was determined as 0.2 mg/mL. Also, the Activity was 0.7 mg/mL in test [2], 0.2 mg/mL in [3] and 0.73 mg/mL in test [4]. In addition, the figures for the Blood ethanol concentration in test [5] and in [6] were 0.77 mg/mL and 0.79 mg/mL, respectively.
On to `C=C1C(=O)O[C@@H]2/C=C(\C)CC/C=C(\C)CC[C@@H]12` [COSTUNOLIDE], for which the Serum glucose in test [7] turned out to be 112 mg/dL; in test [8], 171 mg/dL; in test [9] it was 151 mg/dL; in test [11], 179 mg/dL; in test [14], 150 mg/dL; in test [16], 117 mg/dL. In addition, in test [1], the Blood ethanol level amounted to 0.19 mg/mL. Moreover, the Activity in [2] came out at 0.2 mg/mL; in [3], 0.1 mg/mL; in [4], 0.21 mg/mL. For the same compound, the Inhibition (in general, the change of the read-out against control, counted positive when it falls) in [10] was 25.5%; in test [12], 48.2%; in test [13] it was 42.1%; in [15] it was 62.1%. Also, the Blood ethanol concentration in test [5] amounted to 0.18 mg/mL; in [6], 0.23 mg/mL.
Turning to `C=C1CC[C@H]2C(=C)CC[C@H]3C(=C)C(=O)O[C@@H]3[C@@H]12` [DEHYDROCOSTUSLACTONE], the Blood ethanol level in test [1] worked out at 0.19 mg/mL. Also, the Activity in [2] was determined as 0.4 mg/mL; in test [3], 0.2 mg/mL; in test [4] it was 0.23 mg/mL. Also, the Blood ethanol concentration in test [5] stood at 0.2 mg/mL; in [6], 0.57 mg/mL.
Take `C=C1C(=O)O[C@@H]2[C@H]3C(C)=CC[C@@H](O)[C@]3(C)CC[C@@H]12` [SANTAMARIN]: the Blood ethanol level in test [1] was 0.18 mg/mL. The results for the Activity in test [2], in test [3] and in test [4] were 0.43 mg/mL, 0.2 mg/mL and 0.21 mg/mL, respectively. Further, the Blood ethanol concentration in test [5] was 0.2 mg/mL; in [6], 0.4 mg/mL.
Take `C=C1CCOC1=O` [TULIPALINE A]: the Blood ethanol level in [1] is 0.01 mg/mL. Also, the Inhibition in test [17] is 47.9% and 38.8%; in test [15], 33.5% and 57.2%. The Activity was 0.17 mg/mL in test [2]; 0.32 mg/mL in test [18]; 0.01 mg/mL in [3]; 0.1 mg/mL in test [4]; 0.7 mg/mL in test [19]; 0.39 mg/mL in [20]. The Blood ethanol concentration in test [5] came to 0.04 mg/mL; in test [6], 0.09 mg/mL.
